According to US20060041016A1, “Composition and method for the treatment of psoriasis” (priority 2004, published 2006):

Assays:
eye = conditions: tested in the form of an isopropyl ester prodrug; cited from earlier work
[1] = test system: Normal human epithelial keratinocytes; experiment: Antiproliferative effect on cultured keratinocytes, crystal violet method, absorbance at 595 nm; format: cell-based; conditions: for antiproliferative potency relative to PGA2 and the other analogues: normal human epithelial keratinocytes, 7 days incubation, FIG. 1-4
Method: Normal human epithelial keratinocytes, and keratinocyte growth medium (KGM^R-2 Bulletkit; CC-3107 from Clonetics, USA) were purchased from Göteborgs Termometerfabrik AB (Västra Frölunda, Sweden). The cells were cultured at 37° C. in 5% CO2 humidified air according to standard procedure. The cells used for the experiments were at the third passage. 48-well plates were used for the cultures. In each well about 3000 cells were seeded. For each concentration of prostaglandin analogues two wells were used. After completion of the incubation, the wells were washed twice with phosphate buffered saline (PBS). Thereafter the cells were fixed with 1% glutaraldehyde in PBS at +4° C. for 15 min. The wells were then again washed twice with PBS, and thereafter treated with 0.1% crystal violet solution (500 μl/well). The wells were then rinsed with distilled water for 15 sec, three times, and were left to dry completely. The absorbed colour was solubilized in 500 μl 2.5% sodiumdodecyl-sulphate (SDS) in distilled water for 3 hours. The absorbance of the fluid in the wells was determined using a microtiter well spectrophotometer (Multiscan RC V1.3-0) at 595 nm. The experiments were performed in duplicate (two wells). The incubation time was 7 days, and the incubation medium was changed after 3-4 days. The prostaglandin analogues were dissolved directly in the incubation medium. After appropriate incubation the density of cells in the wells was determined using the crystal violet method described above.

[2] = test system: BAX gene expression (BAX-protein) in human keratinocytes; experiment: Expression of the pro-apoptotic BAX gene by immunocytochemistry; format: cell-based
Method: The cells, cultivated essentially as described above, were trypsinized, the solution centrifuged, and the pellet resuspended and transferred to a microscopic slide with cover slip. Immunocytochemistry was performed according to standard technique. BAX (N-20)-affinity purified rabbit polyclonal antibodies were purchased from Santa Cruz Biotechnology Inc. (Santa Cruz, Calif.), and used at a dilution of 1:200. Secondary goat-antirabbit antibodies conjugated to horseradish peroxidase (Dako Envision+TM) obtained from Dako (Carpinteria, Calif., USA) were used for detecting the primary antibodies. After appropriate rinsing the preparations were incubated with […] as chromogenic substrate for the horseradish peroxidase for 10 min at room temperature. […] The preparations were finally examined in a Nikon FTX fluorescence microscope equipped with camera, and colour photographs were taken of representative cells.
In another set of experiments, intravital staining for detection of apoptosis/necrosis in keratinocytes cultivated as above in the absence and presence of BR280 (17-phenyl-18,19,20-trinor-PGA2) was performed with propidium-iodide/Hoechst 33342 (bisbenzimide) purchased from Sigma Chemical Company (St. Louis, Mo.). […] The cells were examined in a Nikon FTX fluorescence microscope equipped with a UV-2A filter and camera. […]

human keratinocytes = experiment: Intravital staining with propidium-iodide/Hoechst 33342 for apoptosis/necrosis; format: cell-based; conditions: keratinocytes exposed for 7 days
Method: In another set of experiments, intravital staining for detection of apoptosis/necrosis in keratinocytes cultivated as above in the absence and presence of BR280 (17-phenyl-18,19,20-trinor-PGA2) was performed with propidium-iodide/Hoechst 33342 (bisbenzimide) purchased from Sigma Chemical Company (St. Louis, Mo.). A mixture of propidium-iodide (10 μg/ml) and Hoechst 33342 (5 μg/ml) was added to the culture medium. The cells were incubated in the medium for 10 min at 37° C. The medium was harvested for free floating cells while the attached cells were washed once with Ca^++/Mg^++ free Hanks solution (Sigma Chemical Company), or PBS. Thereafter 1.5 ml of a 0.5% trypsin/EDTA solution (Ca^++/Mg^++ free Hanks solution, or PBS) was added and incubation was carried out for 5 min at 37° C. The solution was then centrifuged for 1 min (500 g). The pellet was resuspended in 0.5 ml PBS, and the solution was centrifuged as above. The pellet was then suspended in 20 μl PBS, and the solution containing the cells was placed on a microscopic slide with cover slip. The cells were examined in a Nikon FTX fluorescence microscope equipped with a UV-2A filter and camera. Colour photographs were taken of representative cells. The prostaglandin analogue (BR280) was diluted directly in the culture medium. […]

human eye = experiment: Hyperemia/irritation test using the human eye as a model; format: in vivo; conditions: for hyperemia and ocular irritation or pain after application (in words): human eye, topical, 3 individuals, about 10^−4 M and about 3×10^−4 M; for Difference in irritation PGA2 - JB991 acid / Difference in hyperemia PGA2 - JB991 acid: topical on eye, n = 3; for Difference in irritation PGA2 - JB991 acid: categorical scale, Mean ± SEM; for Difference in hyperemia PGA2 - JB991 acid: scale 0-3, Mean ± SEM
Method: PGA2 and 17-phenyl-18,19,20-trinor-PGA2, synthesized as described above, were formulated in vehicles suitable for hyperemia/irritation tests using the human eye as a model. The superficial redness of the eyes was documented by colour photographs before, and 15, 30, 60 and 120 min after application of the test substances. One eye was treated with the prostaglandin analogue and the other eye with the vehicle only. Ocular irritation or pain was recorded at the same time points. The two test substances at a concentration of 26 μg/ml (about 10^−4 M) were tested in the same eye of three healthy individuals a few days apart.
About a week later, a higher concentration of each compound, 84 μg/ml of PGA2 and 96 μg/ml of 17-phenyl-18,19,20-trinor-PGA2 (both concentrations corresponding to about 3×10^−4 M) was again tested a few days apart in the same eyes of the same individuals. The concentrations used are relevant since for the treatment of psoriasis the drugs have to be used at approximately this concentration range. The hyperemia was evaluated on a scale from 0 (no hyperemia) to 3 (maximum hyperemia) using half steps. A similar categorical scale was used for the ocular irritation or pain. […]

[3] = Dose 2 (84 μg/ml; JB991 acid 96 μg/ml), 0 min
[4] = Dose 2 (84 μg/ml; JB991 acid 96 μg/ml), 15 min
[5] = Dose 2 (84 μg/ml; JB991 acid 96 μg/ml), 30 min
[6] = Dose 2 (84 μg/ml; JB991 acid 96 μg/ml), 60 min
[7] = Dose 2 (84 μg/ml; JB991 acid 96 μg/ml), 120 min

For `O=C(O)CCC/C=C\CC1C(=O)C=CC1CCC(O)CCc1ccccc1` (stereo not drawn), which “hyperemia in the eye” value (eye) is on record?
The value was “caused some hyperemia in the eye”.

With `O=C(O)CCC/C=C\CC1C(=O)C=CC1/C=C/C(O)COc1cccc(C(F)(F)F)c1` (stereo not drawn) [BR277, 16-phenoxy-(3-trifluormethyl)-17,18,19,20-tetranor-PGA2] as the compound, how does the “antiproliferative potency relative to PGA2 and the other analogues” value [1] read?
Its value is “next most potent of the PGA2 analogues”.

Which “antiproliferative potency relative to PGA2 and the other analogues” value [1] does the source give for `O=C(O)CCC/C=C\CC1C(=O)C=CC1CCC(O)CCc1ccccc1` (stereo not drawn) [BR278, 13,14-dihydro-17-phenyl-18,19,20-trinor-PGA2] here?
Its value is “lowest potency”.

For `O=C(O)CCC/C=C\CC1C(=O)C=CC1/C=C/C(O)CCc1ccccc1` (stereo not drawn) [BR280, 17-phenyl-18,19,20-trinor-PGA2], which “antiproliferative potency relative to PGA2 and the other analogues” value [1] is on record?
Its value is “even more potent than PGA2”.

And the “BAX gene expression (BAX-protein) immunostaining” value ([2]; human keratinocytes exposed at different concentrations, 2 days incubation)?
The value was “could be demonstrated”.

And the “BAX gene expression effect at low concentrations” value ([2]; lower concentrations than 10^−5 M)?
The value was “weak or absent”.

And the “signs of apoptosis by intravital staining” value (human keratinocytes)?
Its value is “Markedly condensed and fragmented nuclei and apoptotic bodies could be demonstrated”.

What about the “hyperemia and ocular irritation or pain after application (in words)” value (human eye) of the same compound?
Its value is “no hyperemic effect or irritative effect whatsoever”.

With `CCCCC[C@H](O)/C=C/[C@H]1C=CC(=O)[C@@H]1C/C=C\CCCC(=O)O` [PGA2, prostaglandin A2] as the compound, how does the complete cell death ([1]; highest concentration tested) read?
The complete cell death was “Neither PGA2 nor any of the analogues tested were able to cause complete cell death”.

And the “Difference in irritation PGA2 - JB991 acid” value (shortened to “Difference in irritation PGA2”) (human eye; Dose 1 (26 μg/ml), 0 min)?
Its value is 0.00 ± 0.00.

What about the “Difference in hyperemia PGA2 - JB991 acid” value (shortened to “Difference in hyperemia PGA2”) (human eye; Dose 1 (26 μg/ml), 0 min) of the same compound?
The value was 0.00 ± 0.00.

What about the “Difference in irritation PGA2” value (human eye; Dose 1 (26 μg/ml), 15 min) of the same compound?
The value was 1.00 ± 0.29.

And the “Difference in hyperemia PGA2” value (human eye; Dose 1 (26 μg/ml), 15 min)?
The value was 1.33 ± 0.60.

And the “Difference in irritation PGA2” value (human eye; Dose 1 (26 μg/ml), 30 min)?
The value was 1.17 ± 0.33.

What about the “Difference in hyperemia PGA2” value (human eye; Dose 1 (26 μg/ml), 30 min) of the same compound?
The value was 1.17 ± 0.44.

What about the “Difference in irritation PGA2” value (human eye; Dose 1 (26 μg/ml), 60 min) of the same compound?
Its value is 0.50 ± 0.29.

And the “Difference in hyperemia PGA2” value (human eye; Dose 1 (26 μg/ml), 60 min)?
The value was 0.67 ± 0.44.

What about the “Difference in irritation PGA2” value (human eye; Dose 1 (26 μg/ml), 120 min) of the same compound?
The value was 0.17 ± 0.17.

What about the “Difference in hyperemia PGA2” value (human eye; Dose 1 (26 μg/ml), 120 min) of the same compound?
The value was 0.17 ± 0.17.

What about the “Difference in irritation PGA2” value (human eye; [3]) of the same compound?
Its value is 0.00 ± 0.00.

And the “Difference in hyperemia PGA2” value (human eye; [3])?
The value was 0.00 ± 0.00.

And the “Difference in irritation PGA2” value (human eye; [4])?
The value was 1.83 ± 0.44 *).

And the “Difference in hyperemia PGA2” value (human eye; [4])?
Its value is 2.17 ± 0.44 **).

What about the “Difference in irritation PGA2” value (human eye; [5]) of the same compound?
Its value is 1.33 ± 0.60.

And the “Difference in hyperemia PGA2” value (human eye; [5])?
Its value is 2.17 ± 0.44 **).

And the “Difference in irritation PGA2” value (human eye; [6])?
The value was 0.83 ± 0.44.

And the “Difference in hyperemia PGA2” value (human eye; [6])?
The value was 1.33 ± 0.60.

And the “Difference in irritation PGA2” value (human eye; [7])?
Its value is 0.33 ± 0.17.

What about the “Difference in hyperemia PGA2” value (human eye; [7]) of the same compound?
The value was 0.50 ± 0.29.

What about the “hyperemia and ocular irritation or pain after application (in words)” value (human eye) of the same compound?
The value was “causes both these disadvantageous side-effects”.
